These results are taken from patent US20110144159A1, “ETHER BENZYLIDENE PIPERIDINE ARYL CARBOXAMIDE COMPOUNDS USEFUL AS FAAH INHIBITORS” (Pfizer Inc, priority 2008, published 2011).

The experiment addresses T1, Human FAAH (Homo sapiens, UniProt O00519).
T1 construct: made in house
T1 sequence (O00519 32-579 limits assumed): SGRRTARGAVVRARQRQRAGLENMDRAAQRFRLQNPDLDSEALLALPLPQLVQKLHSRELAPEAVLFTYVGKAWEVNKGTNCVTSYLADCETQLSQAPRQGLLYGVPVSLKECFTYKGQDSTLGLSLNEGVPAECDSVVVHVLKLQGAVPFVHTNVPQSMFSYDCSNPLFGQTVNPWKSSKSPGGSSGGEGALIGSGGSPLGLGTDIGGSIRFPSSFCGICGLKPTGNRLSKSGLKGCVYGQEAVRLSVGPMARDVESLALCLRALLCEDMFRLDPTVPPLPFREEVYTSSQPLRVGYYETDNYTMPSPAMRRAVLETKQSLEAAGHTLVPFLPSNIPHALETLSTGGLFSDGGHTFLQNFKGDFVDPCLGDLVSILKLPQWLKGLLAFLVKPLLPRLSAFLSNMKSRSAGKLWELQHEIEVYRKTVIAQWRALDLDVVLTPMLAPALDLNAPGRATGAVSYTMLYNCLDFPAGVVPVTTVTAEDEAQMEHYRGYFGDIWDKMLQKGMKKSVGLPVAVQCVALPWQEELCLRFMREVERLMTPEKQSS
In words: FAAH assay (glutamate dehydrogenase-coupled, oleamide substrate, absorbance at 340 nm). It counts as biochemical. The following applies: irreversible inhibition potency. As to the method: A FAAH assay may be carried out in 384-well clear polystyrene plates in a total volume of 50 μl per well. All percents are by volume. To each well was placed the reaction mixture (40 μl) containing 1-4 nM FAAH, 50 mM NaPi, pH 7.4, 3 mM α-ketoglutarate, 0.15 mM NADH, 7.5 U/ml glutamate dehydrogenase, 2 mM ADP, 1 mM EDTA, and 0.1% Triton X-100 (The concentration shown for each component was the final concentration in the assay). To this mixture was added 5 μl of a compound of Examples 1 to 20 at various concentrations prepared in 50% DMSO (or 5 μl 50% DMSO for controls). This was immediately followed by the addition of 5 μl oleamide (500 μM) dissolved in 75% EtOH/25% DMSO and the reaction mixture was mixed for 1.5 min. The final concentrations of DMSO and EtOH in the assay are each 7.5%. The reactions was then incubated at 30° C. and the absorbance at 340 nm was collected over a period of 90 min with readings taken in 30-second intervals using SpectraMax Plus^384 Microplate Spectrophotometer (Molecular Devices, Sunnyvale, Calif.). Human FAAH used in the assay was prepared as described in the patent application WO 2006/067613. The purity of the enzyme used was greater than 98% based on an analysis by SDS-polyacrylamide gel electrophoresis followed by Coomassie Blue staining.
Initial velocity data (V) is obtained from the slopes of the initial progressive curves. They are plotted as a function of substrate concentration and fit to the Michaelis-Menten equation (1) using Prism (GraphPad Software, Inc., San Diego, Calif.) software to obtain Km and Vmax values.
To obtain potencies of irreversible inhibitors, progressive curves consistent with first order inhibition kinetics (two-step irreversible inhibition mechanism) are fit to equation (2) by nonlinear least squares regressions to determine kobs values at each inhibitor concentration, where [P]t is the absorbance at time t, V0 is a constant related to the steady state rate of the uninhibited reaction, and kobs is the first order rate constant for enzyme inactivation. The inhibitor dissociation constant (Ki) and the first order rate
constant of enzyme inactivation at infinite inhibitor concentration (kinact) are then obtained by fitting the kobs vs. [I] curves to equation (3).

Consider `O=C(Nc1cccnn1)N1CCC(=Cc2cccc(OC3CCOCC3)c2)CC1` [Example 44, N-pyridazin-3-yl-4-[3-(tetrahydro-2H-pyran-4-yloxy)benzylidene]piperidine-1-carboxamide], for which the “hFAAH KInact/K” value is 563 M⁻¹ s⁻¹.

On to `O=C(Nc1cccnn1)N1CCC(=Cc2cccc(OCC3CCCO3)c2)CC1` (stereo not shown) [Example 45, N-pyridazin-3-yl-4-[3-(tetrahydrofuran-2-ylmethoxy)benzylidene]piperidine-1-carboxamide], for which the “hFAAH KInact/K” value is 573 M⁻¹ s⁻¹.

Take `CC(C)OCCOc1cccc(C=C2CCN(C(=O)Nc3cccnn3)CC2)c1` [Example 47, 4-[3-(2-isopropoxyethoxy)benzylidene]-N-pyridazin-3-ylpiperidine-1-carboxamide]: the “hFAAH KInact/K” value came out at 11900 M⁻¹ s⁻¹.

As to `CC(C)(C)CCOc1cccc(C=C2CCN(C(=O)Nc3cccnn3)CC2)c1` [Example 48, 4-[3-(3,3-dimethylbutoxy)benzylidene]-N-pyridazin-3-ylpiperidine-1-carboxamide], the “hFAAH KInact/K” value is 2580 M⁻¹ s⁻¹.

Take `COC(C)(C)CCOc1cccc(C=C2CCN(C(=O)Nc3cccnn3)CC2)c1` [Example 49, 4-[3-(3-methoxy-3-methylbutoxy)benzylidene]-N-pyridazin-3-ylpiperidine-1-carboxamide]: the “hFAAH KInact/K” value came out at 1290 M⁻¹ s⁻¹.

Regarding `CCC(C)COc1cccc(C=C2CCN(C(=O)Nc3cccnn3)CC2)c1` (stereo not shown) [Example 50, 4-[3-(2-methylbutoxy)benzylidene]-N-pyridazin-3-ylpiperidine-1-carboxamide], the “hFAAH KInact/K” value was found to be 4500 M⁻¹ s⁻¹.

Regarding `CCCCOc1cccc(C=C2CCN(C(=O)Nc3cccnn3)CC2)c1` [Example 51, 4-(3-butoxybenzylidene)-N-pyridazin-3-ylpiperidine-1-carboxamide], the “hFAAH KInact/K” value stood at 8350 M⁻¹ s⁻¹.

With `Cc1cccc(OCCOc2cccc(C=C3CCN(C(=O)Nc4cccnn4)CC3)c2)c1` [Example 52, 4-{3-[2-(3-methylphenoxy)ethoxy]benzylidene}-N-pyridazin-3-ylpiperidine-1-carboxamide], the “hFAAH KInact/K” value was 31600 M⁻¹ s⁻¹.

In the case of `O=C(Nc1cccnn1)N1CCC(=Cc2cccc(OCC3CCOC3)c2)CC1` (stereo not shown) [Example 53, N-pyridazin-3-yl-4-[3-(tetrahydrofuran-3-ylmethoxy)benzylidene]piperidine-1-carboxamide], the “hFAAH KInact/K” value is 1750 M⁻¹ s⁻¹.

With `Cc1cc(COc2cccc(C=C3CCN(C(=O)Nc4cccnn4)CC3)c2)no1` [Example 54, 4-{3-[(5-methylisoxazol-3-yl)methoxy]benzylidene}-N-pyridazin-3-ylpiperidine-1-carboxamide], the “hFAAH KInact/K” value amounted to 1880 M⁻¹ s⁻¹.

In the case of `CN1CCCCC1COc1cccc(C=C2CCN(C(=O)Nc3cccnn3)CC2)c1` (stereo not shown) [Example 55, 4-{3-[(1-methylpiperidin-2-yl)methoxy]benzylidene}-N-pyridazin-3-ylpiperidine-1-carboxamide], the “hFAAH KInact/K” value was 35 M⁻¹ s⁻¹.

Turning to `COC(COc1cccc(C=C2CCN(C(=O)Nc3cccnn3)CC2)c1)c1ccccc1` (stereo not shown) [Example 56, 4-[3-(2-methoxy-2-phenylethoxy)benzylidene]-N-pyridazin-3-ylpiperidine-1-carboxamide], the “hFAAH KInact/K” value turned out to be 149 M⁻¹ s⁻¹.

In the case of `O=C(Nc1cccnn1)N1CCC(=Cc2cccc(OCC3CC=CCC3)c2)CC1` (stereo not shown) [Example 57, 4-[3-(cyclohex-3-en-1-ylmethoxy)benzylidene]-N-pyridazin-3-ylpiperidine-1-carboxamide], the “hFAAH KInact/K” value stood at 16300 M⁻¹ s⁻¹.

On to `CO[C@@H](COc1cccc(C=C2CCN(C(=O)Nc3cccnn3)CC2)c1)c1ccccc1` [Example 58, 4-{3-[(2R)-2-methoxy-2-phenylethoxy]benzylidene}-N-pyridazin-3-ylpiperidine-1-carboxamide], for which the “hFAAH KInact/K” value was 473 M⁻¹ s⁻¹.

In the case of `O=C(Nc1cccnn1)N1CCC(=Cc2cccc(OCCc3cnoc3)c2)CC1` [Example 60, 4-[3-(2-isoxazol-4-ylethoxy)benzylidene]-N-pyridazin-3-ylpiperidine-1-carboxamide], the “hFAAH KInact/K” value is 2190 M⁻¹ s⁻¹.

As to `CC(C)C(C)Oc1cccc(C=C2CCN(C(=O)Nc3cccnn3)CC2)c1` (stereo not shown) [Example 61, 4-[3-(1,2-dimethylpropoxy)benzylidene]-N-pyridazin-3-ylpiperidine-1-carboxamide], the “hFAAH KInact/K” value is 1420 M⁻¹ s⁻¹.

Take `CC(C)CCOc1cccc(C=C2CCN(C(=O)Nc3cccnn3)CC2)c1` [Example 62, 4-[3-(3-methylbutoxy)benzylidene]-N-pyridazin-3-ylpiperidine-1-carboxamide]: the “hFAAH KInact/K” value is 15200 M⁻¹ s⁻¹.

As to `Cc1cc(COc2cccc(C=C3CCN(C(=O)Nc4cccnn4)CC3)c2)c(C(F)(F)F)o1` [Example 63, 4-(3-{[5-methyl-2-(trifluoromethyl)-3-furyl]methoxy}benzylidene)-N-pyridazin-3-ylpiperidine-1-carboxamide], the “hFAAH KInact/K” value is 131 M⁻¹ s⁻¹.

For `CCC(Oc1cccc(C=C2CCN(C(=O)Nc3cccnn3)CC2)c1)C(C)C` (stereo not shown) [Example 64, 4-[3-(1-ethyl-2-methylpropoxy)benzylidene]-N-pyridazin-3-ylpiperidine-1-carboxamide], the “hFAAH KInact/K” value amounted to 379 M⁻¹ s⁻¹.

Turning to `Cc1noc(C)c1COc1cccc(C=C2CCN(C(=O)Nc3cccnn3)CC2)c1` [Example 65, 4-{3-[(3,5-dimethylisoxazol-4-yl)methoxy]benzylidene}-N-pyridazin-3-ylpiperidine-1-carboxamide], the “hFAAH KInact/K” value turned out to be 130 M⁻¹ s⁻¹.

As to `COCCOc1cccc(C=C2CCN(C(=O)Nc3cccnn3)CC2)c1` [Example 66, 4-[3-(2-methoxyethoxy)benzylidene]-N-pyridazin-3-ylpiperidine-1-carboxamide], the “hFAAH KInact/K” value was 503 M⁻¹ s⁻¹.

`Cc1cccc(COc2cccc(C=C3CCN(C(=O)Nc4cccnn4)CC3)c2)n1` [Example 67, 4-{3-[(6-methylpyridin-2-yl)methoxy]benzylidene}-N-pyridazin-3-ylpiperidine-1-carboxamide]: the “hFAAH KInact/K” value stood at 370 M⁻¹ s⁻¹.

Consider `O=C(Nc1cccnn1)N1CCC(=Cc2cccc(OCc3nccs3)c2)CC1` [Example 68, N-pyridazin-3-yl-4-[3-(1,3-thiazol-2-ylmethoxy)benzylidene]piperidine-1-carboxamide], for which the “hFAAH KInact/K” value is 452 M⁻¹ s⁻¹.

Consider `Cc1cc(COc2cccc(C=C3CCN(C(=O)Nc4cccnn4)CC3)c2)nn1C` [Example 70, 4-{3-[(1,5-dimethyl-1H-pyrazol-3-yl)methoxy]benzylidene}-N-pyridazin-3-ylpiperidine-1-carboxamide], for which the “hFAAH KInact/K” value was determined as 116 M⁻¹ s⁻¹.

For the compound `O=C(Nc1cccnn1)N1CCC(=Cc2cccc(OCc3cccc(C(F)(F)F)n3)c2)CC1` [Example 71, N-pyridazin-3-yl-4-(3-{[6-(trifluoromethyl)pyridin-2-yl]methoxy}benzylidene)piperidine-1-carboxamide], the “hFAAH KInact/K” value was 294 M⁻¹ s⁻¹.

`O=C(Nc1cccnn1)N1CCC(=Cc2cccc(OCCCC(F)(F)F)c2)CC1` [Example 72, N-pyridazin-3-yl-4-[3-(4,4,4-trifluorobutoxy)benzylidene]piperidine-1-carboxamide]: the “hFAAH KInact/K” value amounted to 16800 M⁻¹ s⁻¹.

For `O=C(Nc1cccnn1)N1CCC(=Cc2cccc(OCc3ccc(C(F)(F)F)cn3)c2)CC1` [Example 73, N-pyridazin-3-yl-4-(3-{[5-(trifluoromethyl)pyridin-2-yl]methoxy}benzylidene)piperidine-1-carboxamide], the “hFAAH KInact/K” value was 1470 M⁻¹ s⁻¹.

In the case of `Cc1ccc(COc2cccc(C=C3CCN(C(=O)Nc4cccnn4)CC3)c2)cn1` [Example 74, 4-{3-[(6-methylpyridin-3-yl)methoxy]benzylidene}-N-pyridazin-3-ylpiperidine-1-carboxamide], the “hFAAH KInact/K” value came out at 188 M⁻¹ s⁻¹.
